US10954216B2, “BMP-signal-inhibiting compound” (RIKEN, priority 2016, dated 2021)

Test system: BMP signal in MDA-231-D-BREFluc/Rluc cells
Assay: BMP signal inhibitory effect (AlphaScreen SureFire SMAD1 p-Ser463/465, BMP-6 stimulation)
Type: cell-based
Details: BMP-6 stimulated MDA-231-D-BREFluc/Rluc cells, phospho-SMAD1 AlphaScreen; read-out: IC50
Protocol: BMP Signal Inhibitory Effect
A BMP signal inhibitory activity of a compound of the present invention was evaluated according to the following method.
MDA-231-D-BREFluc/Rluc cells prepared according to the method described in Y. Katsuno et al., Oncogene, 27, 6322 (2008) were incubated at 37° C. for 2 hours together with test compounds, and BMP-6 (commercially available from R&D System, 507-BM-020) was then added thereto, and the mixture was additionally incubated at 37° C. for 30 minutes. A Lysis Buffer and Acceptor mix of AlphaScreen SureFire SMAD1 (p-Ser463/465) assay kit (commercially available from Perkin Elmer, TGRSM1S10K) were sequentially added thereto, the mixture was incubated at room temperature for 2 hours, and AlphaScreen Protein A kit (commercially available from Perkin Elmer, 6760617) was then added thereto, and standard AlphaScreen settings of Alpha Technology—compatible plate reader (commercially available from Perkin Elmer, EnSpire) was used for measurement.

Compound | IC50
c1ccc(Cn2cc(-c3ccnc(Nc4ccc(N5CCNCC5)cc4)n3)c(-c3cccnc3)n2)nc1 [Example 140, N-(4-(Piperazin-1-yl)phenyl)-4-(1-(pyridin-2-ylmethyl)-3-(pyridin-3-yl)-1H-pyrazol-4-yl)pyrimidin-2-amine] | 31.9 nM
CCn1cc(-c2ccnc(Nc3ccc4c(c3)CCN(C3CC3)CC4)n2)c(-c2cccnc2)n1 [Example 66, 3-Cyclopropyl-N-(4-(1-ethyl-3-(pyridin-3-yl)-1H-pyrazol-4-yl)pyrimidin-2-yl)-2,3,4,5-tetrahydro-1H-benzo[d]azepin-7-amine] | 6.4 nM
CCn1cc(-c2ccnc(Nc3ccc(C4CCN(C5COC5)CC4)cc3)n2)c(-c2cccnc2)n1 [Example 11, 4-(1-Ethyl-3-(pyridin-3-yl)-1H-pyrazol-4-yl)-N-(4-(1-(oxetan-3-yl)piperidin-4-yl)phenyl)pyrimidin-2-amine] | 29.4 nM
CCn1cc(-c2ccnc(Nc3ccc(C(=O)N4CCN(C(C)C)CC4)cc3)n2)c(-c2cccnc2)n1 [Example 119, (4-((4-(1-Ethyl-3-(pyridin-3-yl)-1H-pyrazol-4-yl)pyrimidin-2-yl)amino)phenyl) (4-isopropylpiperazin-1-yl)methanone] | 5 nM
COCCn1cc(-c2ccnc(Nc3ccc4c(c3)CCN(C)C4)n2)c(-c2cccnc2)n1 [Example 64, N-(4-(1-(2-Methoxyethyl)-3-(pyridin-3-yl)-1H-pyrazol-4-yl)pyrimidin-2-yl)-2-methyl-1,2,3,4-tetrahydroisoquinolin-6-amine] | 4 nM
COCCn1cc(-c2ccnc(Nc3ccc4c(c3)CN(C)C4)n2)c(-c2cccnc2)n1 [Example 60, N-(4-(1-(2-methoxyethyl)-3-(pyridin-3-yl)-1H-pyrazol-4-yl)pyrimidin-2-yl)-2-methylisoindolin-5-amine] | 6.4 nM
COCCn1cc(-c2ccnc(Nc3ccc(N4CCN(C)CC4)cc3)n2)c(-c2cccnc2)n1 [Example 35, 4-(1-(2-methoxyethyl)-3-(pyridin-3-yl)-1H-pyrazol-4-yl)-N-(4-(4-methylpiperazin-1-yl)phenyl)pyrimidin-2-amine] | 22.5 nM
CCn1cc(-c2ccnc(Nc3ccc(N4CCC(N5CCN(C)CC5)CC4)cc3)n2)c(-c2cccnc2)n1 [Example 20] | 11.8 nM
FC(F)(F)OCCn1cc(-c2ccnc(Nc3ccc(N4CCNCC4)cc3)n2)c(-c2cccnc2)n1 [Example 72, N-(4-(Piperazin-1-yl)phenyl)-4-(3-(pyridin-3-yl)-1-(2-(trifluoromethoxy)ethyl)-1H-pyrazol-4-yl)pyrimidin-2-amine] | 13.4 nM
FC(F)(F)Cn1cc(-c2ccnc(Nc3ccc(N4CCNCC4)cc3)n2)c(-c2cccnc2)n1 [Example 136, N-(4-(piperazin-1-yl)phenyl)-4-(3-(pyridin-3-yl)-1-(2,2,2-trifluoroethyl)-1H-pyrazol-4-yl)pyrimidin-2-amine] | 13.3 nM
CCn1cc(-c2ccnc(Nc3ccc(N4CCN(CC5COC5)CC4)cc3)n2)c(-c2cccnc2)n1 [Example 99, 4-(1-Ethyl-3-(pyridin-3-yl)-1H-pyrazol-4-yl)-N-(4-(4-(oxetan-3-ylmethyl)piperazin-1-yl)phenyl)pyrimidin-2-amine] | 20 nM
CCn1cc(-c2ccnc(Nc3ccc(N4CCN(CCOCC5CC5)CC4)cc3)n2)c(-c2cccnc2)n1 [Example 52, N-(4-(4-(2-(Cyclopropylmethoxy)ethyl)piperazin-1-yl)phenyl)-4-(1-ethyl-3-(pyridin-3-yl)-1H-pyrazol-4-yl)Pyrimidin-2-amine] | 13.3 nM
CCn1cc(-c2ccnc(Nc3ccc(N4CCN(CC(=O)N5CCCCC5)CC4)cc3)n2)c(-c2cccnc2)n1 [Example 31, 2-(4-(4-((4-(1-Ethyl-3-(pyridin-3-yl)-1H-pyrazol-4-yl)pyrimidin-2-yl)amino)phenyl)piperazin-1-yl)-1-(piperidin-1-yl)ethan-1-one] | 19.7 nM
CCn1cc(-c2ccnc(Nc3ccc(N4CCN(CC5(C)COC5)CC4)cc3)n2)c(-c2cccnc2)n1 [Example 98, 4-(1-ethyl-3-(pyridin-3-yl)-1H-pyrazol-4-yl)-N-(4-(4-((3-methyloxetan-3-yl)methyl)piperazin-1-yl)phenyl)pyrimidin-2-amine] | 23.4 nM
CN1CCc2cc(Nc3nccc(-c4cn(CC(C)(C)O)nc4-c4cccnc4)n3)ccc2C1 [Example 65, 2-Methyl-1-(4-(2-((2-methyl-1,2,3,4-tetrahydroisoquinolin-6-yl)amino)pyrimidin-4-yl)-3-(pyridin-3-yl)-1H-pyrazol-1-yl)propan-2-ol] | 3.3 nM
CN1CCCC1CN1CCN(c2ccc(Nc3nccc(-c4cn(C5COC5)nc4-c4cccnc4)n3)cc2)CC1 (centres unmarked) [Example 79, N-(4-(4-((1-Methylpyrrolidin-2-yl)methyl)piperazin-1-yl)phenyl)-4-(1-(oxetan-3-yl)-3-(pyridin-3-yl)-1H-pyrazol-4-yl)pyrimidin-2-amine] | 35.7 nM
CCn1cc(-c2ccnc(Nc3ccc4c(c3)CCN(CC(O)COC)C4)n2)c(-c2cccnc2)n1 (centres unmarked) [Example 109, 1-(6-((4-(1-Ethyl-3-(pyridin-3-yl)-1H-pyrazol-4-yl)pyrimidin-2-yl)amino)-3,4-dihydroisoquinolin-2 (1H)-yl)-3-methoxypropan-2-ol] | 5.7 nM
CCn1cc(-c2ccnc(Nc3cccc(N4CCN(C)CC4)c3)n2)c(-c2cccnc2)n1 [Example 34, 4-(1-ethyl-3-(pyridin-3-yl)-1H-pyrazol-4-yl)-N-(3-(4-methylpiperazin-1-yl)phenyl)pyrimidin-2-amine] | 17.3 nM
CCn1cc(-c2ccnc(Nc3ccc(N4CCN(CC5CC(C)(C)O5)CC4)cc3)n2)c(-c2cccnc2)n1 (centres unmarked) [Example 96, N-(4-(4-((4,4-dimethyloxetan-2-yl)methyl)piperazin-1-yl)phenyl)-4-(1-ethyl-3-(pyridin-3-yl)-1H-pyrazol-4-yl)pyrimidin-2-amine] | 20.9 nM
CC(=O)N1CCN(C(=O)c2ccc(Nc3nccc(-c4cn(CCc5ccccc5)nc4-c4cccnc4)n3)cc2)CC1 [Example 74, 1-(4-(4-((4-(1-phenethyl-3-(pyridin-3-yl)-1H-pyrazol-4-yl)pyrimidin-2-yl)amino)benzoyl)piperazin-1-yl)ethan-1-one] | 39 nM

Continued, values first:

IC50 | Compound
17.6 nM | CCn1cc(-c2ccnc(Nc3ccc(-c4nnc(C)s4)cc3)n2)c(-c2cccnc2)n1 [Example 56, 4-(1-Ethyl-3-(pyridin-3-yl)-1H-pyrazol-4-yl)-N-(4-(5-methyl-1,3,4-thiadiazol-2-yl)phenyl)pyrimidin-2-amine]
11.7 nM | CCn1cc(-c2ccnc(Nc3ccc(CCN4CCN(C)CC4)cc3)n2)c(-c2cccnc2)n1 [Example 112, 4-(1-ethyl-3-(pyridin-3-yl)-1H-pyrazol-4-yl)-N-(4-(2-(4-methylpiperazin-1-yl)ethyl)phenyl)pyrimidin-2-amine]
13.3 nM | CCn1cc(-c2ccnc(Nc3ccc(OC4CN(CC(C)(C)O)C4)cc3)n2)c(-c2cccnc2)n1 [Example 108, 1-(3-(4-((4-(1-Ethyl-3-(pyridin-3-yl)-1H-pyrazol-4-yl)pyrimidin-2-yl)amino)phenoxy)azetidin-1-yl)-2-methylpropan-2-ol]
33.6 nM | CCn1cc(-c2ccnc(Nc3ccc(-c4cnco4)cc3)n2)c(-c2cccnc2)n1 [Example 70, 4-(1-ethyl-3-(pyridin-3-yl)-1H-pyrazol-4-yl)-N-(4-(oxazol-5-yl)phenyl)pyrimidin-2-amine]
5 nM | CCn1cc(-c2ccnc(Nc3cccc(CN(C)C)c3)n2)c(-c2cccnc2)n1 [Example 40, N-(3-((dimethylamino)methyl)phenyl)-4-(1-ethyl-3-(pyridin-3-yl)-1H-pyrazol-4-yl)pyrimidin-2-amine]
29.7 nM | CCn1cc(-c2ccnc(Nc3ccc(N4CCN(CC(N)=O)CC4)cc3)n2)c(-c2cccnc2)n1 [Example 87, 2-(4-(4-((4-(1-Ethyl-3-(pyridin-3-yl)-1H-pyrazol-4-yl)pyrimidin-2-yl)amino)phenyl)piperazin-1-yl)acetamide]
5.2 nM | CCn1cc(-c2ccnc(Nc3ccc(CCN4CCN(CCOC)CC4)cc3)n2)c(-c2cccnc2)n1 [Example 43, 4-(1-ethyl-3-(pyridin-3-yl)-1H-pyrazol-4-yl)-N-(4-(2-(4-(2-methoxyethyl)piperazin-1-yl)ethyl)phenyl)pyrimidin-2-amine]
18.6 nM | CCn1cc(-c2ccnc(Nc3ccc(C4CCCN(CCOC)C4)cc3)n2)c(-c2cccnc2)n1 (centres unmarked) [Example 100, 4-(1-Ethyl-3-(pyridin-3-yl)-1H-pyrazol-4-yl)-N-(4-(1-(2-methoxyethyl)piperidin-3-yl)phenyl)pyrimidin-2-amine]
21.3 nM | CCn1cc(-c2ccnc(Nc3ccc(N4CCN(C5CC5)CC4)cc3)n2)c(-c2cccnc2)n1 [Example 32, N-(4-(4-cyclopropylpiperazin-1-yl)phenyl)-4-(1-ethyl-3-(pyridin-3-yl)-1H-pyrazol-4-yl)pyrimidin-2-amine]
36.9 nM | CCn1cc(-c2ccnc(Nc3ccc(Cn4cncn4)cc3)n2)c(-c2cccnc2)n1 [Example 42, N-(4-((1H-1,2,4-Triazol-1-yl)methyl)phenyl)-4-(1-ethyl-3-(pyridin-3-yl)-1H-pyrazol-4-yl)pyrimidin-2-amine]
15.1 nM | CCn1cc(-c2ccnc(Nc3ccc(C(=O)N4CCN(C)CC4)cc3)n2)c(-c2cccnc2)n1 [Example 116, (4-((4-(1-Ethyl-3-(pyridin-3-yl)-1H-pyrazol-4-yl)pyrimidin-2-yl)amino)phenyl)(4-methylpiperazin-1-yl)methanone]
16.4 nM | CCn1cc(-c2ccnc(Nc3ccc(OC4CNC4)cc3)n2)c(-c2cccnc2)n1 [Example 145, N-(4-(Azetidin-3-yloxy)phenyl)-4-(1-ethyl-3-(pyridin-3-yl)-1H-pyrazol-4-yl)pyrimidin-2-amine]
